Active and inactive are the calls of the source.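 Rule for the calls: active = EC50 no more than a set limit of log units above the highest dose; inactive = the rest.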
Target: S. pyogenes SKKanGAS, kanamycin survival, BacTiterGlo, 6 h
Assay: SKKanGAS survival reduction under kanamycin, dose response, streptokinase promoter inhibitor project, SKKanGAS strain, luminescence, dose confirmation (AID 1902);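 note: lower survival reflects blocked streptokinase promoter driving kanamycin resistance gene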

Row | SMILES | EC50
1 | O=[N+]([O-])c1ccc(Nc2nc(NCCO)nc(N3CCCC3)n2)cc1 | 5.91 µM
2 | COc1cccc(C(=O)Nc2nnc(-c3ccc(F)cc3)o2)c1 | 1.28 µM
3 | c1ccc(-c2nc(NCc3ccco3)c3ccccc3n2)nc1 | 4.7 µM
4 | Oc1[nH]c2ccc(Br)cc2c1N=NC(=S)Nc1ccc(F)cc1 | 0.115 µM
5 | O=C(N/N=C/c1cc(Cl)ccc1O)c1cccnc1 | 1.55 µM
6 | CC(C)c1nc(NCc2ccccc2)c(C#N)c2c1CCCC2 | 3.55 µM
7 | Cc1ccc(CNC(=S)Nc2ccc(NS(=O)(=O)c3ccc(C)cc3)cc2)cc1 | 8.28 µM
8 | Cc1cnc(NC(=O)c2cc3c(C)nn(-c4ccccc4)c3s2)s1 | 0.831 µM
9 | CCN(CC)S(=O)(=O)c1ccc(N2CCOCC2)c(NC(=O)C2CSC3(C)CCC(=O)N23)c1 (configuration not stated) | > 15 µM (inactive)
10 | CC1CCN(c2ccccc2NC(=O)c2cc3ccccc3o2)CC1 | 11.7 µM
11 | CC(NC(=O)Nc1nnc(C(F)(F)F)s1)(C(F)(F)F)C(F)(F)F | 2.97 µM
12 | CCOC(=O)N1CCN(C(=O)c2ccc3c(c2)NC(=O)/C(=C/c2ccccc2)S3)CC1 | 1.59 µM
13 | COC(=O)c1ccc(Oc2nc3ccccc3n3c(C)nnc23)cc1 | 6.1 µM
14 | CC[n+]1c(/C=C2\Sc3ccccc3N2C)ccc2cccc(C)c21 | 3.84 µM
15 | COc1ccc([N+](=O)[O-])cc1NC(=S)NC(NC(=O)C(c1ccccc1)c1ccccc1)C(Cl)(Cl)Cl (configuration not stated) | 12 µM
16 | O=C(N/N=C/c1c(O)n(C2CCCCC2)c(=S)[nH]c1=O)c1ccccc1 | 0.659 µM
17 | O=C(O)c1cccc(N/N=C/C2=C(Cl)c3cc(Cl)ccc3SC2)c1 | 1.77 µM
18 | CC1=C(C(=O)O)N2C(=O)C(NC(=O)Cc3ccccc3)C2SC1 (configuration not stated) | 1.03 µM
19 | O=[N+]([O-])c1ccc(N2N=C(c3ccccc3)CC2c2ccccc2O)cc1 (configuration not stated) | 2.25 µM
20 | COc1cc2c(C(=O)N3CCN(c4ccccc4C)CC3)c(C)oc2cc1Br | 10.3 µM
21 | COc1cccc(-c2nc(NC3CCCC3)c3ccccc3n2)c1O | 5.84 µM
22 | Cc1cccc(CCNC(=O)CC2C(=O)NCCN2Cc2ccccc2C)n1 (configuration not stated) | > 15 µM (inactive)

Row | SMILES | EC50
23 | O=c1[nH]c(-c2ccccn2)nc2sc(-c3ccccc3)cc12 | 0.261 µM
24 | FC(F)Oc1ccccc1C1CC(c2ccc(Br)s2)Nc2ncnn21 (configuration not stated) | 2.83 µM
25 | O=C(Nc1nc(-c2ccccn2)cs1)Nc1ccc(F)cc1F | 1.24 µM
26 | COc1cccc(C(=O)NC(=S)Nc2ccccc2N2CCCCC2)c1 | > 15 µM (inactive)
27 | CCCc1nc2ccccc2c(=O)n1/N=C/c1c(C)[nH]n(-c2ccc(C)cc2)c1=O | 1.23 µM
28 | O=c1c2cc(N3CCOCC3)ccc2[nH]c(=S)n1CCc1ccccc1 | 0.482 µM
29 | O=C(NNC(=O)c1cc(-c2ccc(Cl)cc2Cl)nc2ccccc12)Nc1ccccc1 | 3.04 µM
30 | CC1CN(Cc2nc3c(c(=O)[nH]c(=O)n3C)n2CCCc2ccccc2)CC(C)O1 (configuration not stated) | > 15 µM (inactive)
31 | N#Cc1c(NC(=S)NC(=O)C2CCCC2)sc2c1CCCCC2 | 6.33 µM
32 | O=C(CSc1nnc(CNC(=O)c2ccc(F)cc2)o1)NCc1ccccc1Cl | > 15 µM (inactive)
33 | COc1ccc(N=Nc2ccc(O)c3ncccc23)cc1 | < 0.06 µM
34 | COc1cccc(OC)c1C(=O)Nc1cc(C)nn1-c1nc2ccccc2[nH]1 | 6.26 µM
35 | C=CC(C)(C)c1c(O)c(CC=C(C)C)c(O)c2c(=O)c3ccc(O)c(O)c3oc12 | 1.8 µM
36 | Nc1c(C(=O)Nc2nc3ccccc3s2)sc2nc(-c3cccs3)ccc12 | 6.67 µM
37 | CC(=O)c1c(C)[nH]c(C(=O)Nc2nc(-c3ccc(-c4ccccc4)cc3)cs2)c1C | 4.14 µM
38 | COC(=O)c1c(NC(=O)c2ccn(C)n2)sc2c1CCC2 | > 15 µM (inactive)
39 | Cc1nnc(SCC2=C(C(=O)O)N3C(=O)C(NC(=O)C(C)n4nc(C(F)(F)F)cc4C)C3SC2)s1 (configuration not stated) | 0.14 µM
40 | O=C(NC1=NCCS1)c1cc(-c2ccccc2)nn1-c1ccccc1 | 6.06 µM
41 | COc1ccc(CCCC(=O)N/N=C/c2cccc(OC)c2O)cc1C | 1.66 µM
42 | CCC(CO)Nc1ncnc2c1cnn2-c1ccc(OC)cc1 (configuration not stated) | > 15 µM (inactive)
43 | O=[N+]([O-])c1ccc(O)c(/C=N/Nc2ccc(Cl)nn2)c1 | 0.252 µM
44 | O=C(N/N=C/c1cc(Cl)cc([N+](=O)[O-])c1O)C(O)(c1ccccc1)c1ccccc1 | 3.38 µM

Row | SMILES | EC50
45 | CCCc1ccc(-c2cc(C(=O)N/N=C/c3ccc([N+](=O)[O-])o3)c3ccccc3n2)cc1 | 1.74 µM
46 | COc1cc2c(C#N)c(N3CCN(c4ccccc4OC)CC3)nc(N)c2c(N)n1 | 4.67 µM
47 | Cc1cccc(/C=N/NC(=O)c2ccccc2OCc2cccc(Br)c2)n1 | 6.56 µM
48 | COc1cc(/C=N/Nc2ncnc3sc4c(c23)CCC4)ccc1O | 2.11 µM
49 | CCOC(=O)c1c(C)oc2c1c(C(c1ccccc1)N1CCOCC1)c(O)c1ccccc12 (configuration not stated) | 2.66 µM
50 | Nc1cc(-c2ccc(OC(F)(F)F)cc2)nn1-c1ccc(Cl)c(Cl)c1 | 6.17 µM
51 | Cc1onc(-c2c(F)cccc2Cl)c1C(=O)NCc1ccc2c(c1)OCO2 | > 15 µM (inactive)
52 | O=C(N/N=C/c1cc([N+](=O)[O-])ccc1O)/C(=C\c1cccs1)NC(=O)c1ccccc1 | 1.81 µM
53 | Oc1c(Br)cc(Br)cc1CNc1ccc(F)cc1 | 8.89 µM
54 | Cc1ccc(-c2cc(-c3cccc(F)c3)n[nH]2)c(O)c1 | 4.32 µM
55 | Oc1ccccc1C(Nc1nccs1)c1ccc2cccnc2c1O (configuration not stated) | 4.35 µM
56 | Cc1ccc(SC/C(O)=C(\C#N)c2nc3ccccc3s2)cc1 | 2.83 µM
57 | c1ccc2c(c1)nc(Nc1ccc(N3CCCCC3)cc1)c1nncn12 | 6.03 µM
58 | FC(F)(F)c1cccc(NC(=S)N2CCCC2)c1 | > 15 µM (inactive)
59 | CC1CCCN(S(=O)(=O)c2ccc(C(=O)Nc3nnc(C4=COCCO4)o3)cc2)C1 (configuration not stated) | 5.27 µM
60 | O=C(NC(=S)NNC(=O)c1ccco1)c1ccc(Br)cc1 | 0.772 µM
61 | O=C(OCc1ccccc1)c1cccc(-c2nnn(Cc3ccccc3)n2)c1 | 2.73 µM
62 | O=C(CSc1nnc(NC(=O)c2ccccc2)s1)NCC1CCCO1 (configuration not stated) | > 15 µM (inactive)
63 | C=CCn1c(N)c(C(=O)Nc2cccc(C)c2)c2nc3ccccc3nc21 | 3.4 µM
64 | CCN1/C(=C\C=C\C2=[N+](CC)c3ccccc3C2(C)C)C(C)(C)c2ccccc21 | 7.34 µM
65 | Cc1ccc(C(=O)NC(=S)N(C)C2CCCCC2)cc1Br | 2.96 µM
66 | Oc1ccccc1-c1nc2c3ccccc3c3ccccc3c2[nH]1 | 2.43 µM

Row | SMILES | EC50
67 | O=C(NC(=S)N(CCCCO)C1CCCCC1)c1sc2ccccc2c1Cl | 0.527 µM
68 | CCc1ccccc1OCC(=O)Nc1nc(-c2cccnc2)cs1 | 1.05 µM
69 | O=S(=O)(NCCSCc1c(Cl)cccc1Cl)c1ccc2c(c1)OCCO2 | 7.45 µM
70 | COc1ccccc1N1CCN(Cc2nc(N)nc(Nc3ccc(C)c(Cl)c3)n2)CC1 | 7.99 µM
71 | N#Cc1c(N)nc(Sc2ccc(Cl)cc2)c(C#N)c1-c1ccccc1Cl | 6.03 µM
72 | COc1ccc2ncc(S(=O)(=O)c3ccccc3)c(N3CCN(c4ccccc4)CC3)c2c1 | 3.19 µM
73 | CCCCC(CC)CN1C(=O)/C(=C/c2ccncc2)SC1=S (configuration not stated) | 2.83 µM
74 | O=C(Nc1nc2ccc(SC(F)F)cc2s1)c1ccc(NS(=O)(=O)c2ccc(F)c(F)c2)cc1 | 1.89 µM
75 | S=c1[nH]cnc2scc(-c3ccc(Cl)cc3)c12 | 9.77 µM
76 | COc1ccc(Cl)cc1C(=O)NNC(=S)NC(=O)c1cc(-c2ccc(Cl)cc2)nc2ccccc12 | 0.254 µM
77 | CSc1ccc(S(=O)(=O)NCC(=O)OCC(=O)N2CCCC2=O)cc1[N+](=O)[O-] | 9.29 µM
78 | Cc1ccc(C)c(C(=O)COC(=O)c2cc(Cl)nc3ccccc23)c1 | 10.9 µM
79 | COc1cccc(-c2nn(C)c3sc(C(=O)Nc4ccc5c(c4)OCCO5)cc23)c1 | 3.65 µM
80 | Oc1ccc(CN2CCc3ccccc3C2)c2cccnc12 | 4.09 µM
81 | COc1ccc(-c2[nH]ncc2N=Nc2cc(C)cc(C)c2)cc1 | 4.27 µM
82 | c1ccc(-c2cc(-c3ccncc3)nc3ccc4ccccc4c23)cc1 | 2.21 µM
83 | Cc1ccc(C2(c3ccc(C)cc3)CC2C(=O)Nc2ccc([N+](=O)[O-])cc2O)cc1 (configuration not stated) | 2.15 µM
84 | Cc1ccc(-n2c(-c3ccc(Br)cc3)c[n+]3c2CCc2ccc4cccnc4c2-3)cc1 | 3.6 µM
85 | Cc1ccc(-c2csc(-c3c[nH]c4ccccc34)n2)c(C)c1 | 6.03 µM
86 | COc1ccc(-c2cc(C(=O)NNC(=S)NC(=O)c3c(-c4ccccc4)noc3C)[nH]n2)cc1 | 0.2 µM
87 | O=S(=O)(c1ccc(F)cc1)c1nc(-c2ccccc2)oc1N1CCOCC1 | > 15 µM (inactive)
88 | COC(=O)[C@H]1[C@H](CCc2ccccc2)NC(=O)N(Cc2ccccc2)[C@@H]1C | > 15 µM (inactive)

Row | SMILES | EC50
89 | O=C1c2cccc3cccc(c23)C(=O)N1CC1CCN(CC(O)COc2ccc3ccccc3c2)CC1 (configuration not stated) | 6.84 µM
90 | CCCn1c(=O)c(C(=O)Nc2ncccc2C)c(O)c2ccccc21 | 5.16 µM
91 | NS(=O)(=O)c1ccc(-c2ccc(/C=C3\SC(=S)N(C4CCS(=O)(=O)C4)C3=O)o2)cc1 (configuration not stated) | 4.95 µM
92 | O=C(O)c1ccc(CSc2nc(-c3ccc(Cl)cc3)cc(C(F)(F)F)n2)cc1 | 2.69 µM
93 | Cc1ccc(-c2nc3c(Cl)cc(Cl)cc3c(=O)n2O)cc1 | 0.808 µM
94 | CC(C)(C)[C@@H]1CCC(=O)N(CC[C@H](Sc2ccccc2)c2ccccc2)CC1 | 3.95 µM
95 | Cn1ncc2c(Nc3ccc(Br)cc3)nc(Nc3ccc(Br)cc3)nc21 | 1.08 µM
96 | CC1(C)OC(C(O)(c2ccccc2)c2ccccc2)[C@@H](C(O)(c2ccccc2)c2ccccc2)O1 (some centres not stated) | 3.36 µM
97 | NNc1nc(Nc2ccccc2)nc(Nc2ccccc2)n1 | 4.04 µM
98 | Cc1ccsc1C1C=C(c2cccc(Br)c2)Nc2ncnn21 (configuration not stated) | 14.2 µM
99 | CC1(C)S[C@@H]2[C@H](NC(=O)COc3ccccc3)C(=O)N2C1C(=O)OCc1cc2ccccc2n1S(=O)(=O)c1ccccc1 (some centres not stated) | 3.33 µM
100 | O=C(Nc1nnc(-c2ccccc2Cl)o1)c1ccc(S(=O)(=O)N2CCCCCC2)cc1 | 0.264 µM
101 | CN(Cc1ccc(N(C)C)cc1)C(=O)c1cc2ccccc2o1 | > 15 µM (inactive)
102 | Cc1nn(-c2ccc(Cl)cc2)c(Cl)c1/C=N/NC(=O)c1ccc(NS(=O)(=O)c2cccs2)cc1 | 2.06 µM
103 | CC(C)(C)Nc1nc(-c2ccccn2)nc2ccccc12 | 0.215 µM
104 | CCOc1ccc(-c2nnc3ccc(SC(C)C)nn23)cc1 | 2.15 µM
105 | Cc1ccc(S(=O)(=O)Nc2ccc(Cl)cc2)cc1NC(=O)c1cc2c(s1)CCCC2 | 6.63 µM
106 | O=c1c2ccccc2sn1-c1ccccc1 | 1.11 µM
107 | COc1ccc(CCNC(=O)CSc2nncn2N)cc1OC | > 15 µM (inactive)

From PubChem BioAssay AID1902 (Broad Institute, 2009)
